Entries after “also recorded” stand apart in the source; their conditions may differ.
Key:
[1] = system: Hela cells stably transfected with mCherry and GFP1-10; assay: Split GFP assay (GFP-11 delivery); type: cell-based; conditions: 40 μM peptide-GFP-11, 37° C.
Method: To test the ability of CPPs to deliver other cargoes, specifically a protease-sensitive peptide cargo, we modified the well-known split-GFP assay. CPPs were tested for the ability to deliver the polar 16-residue GFP-11 peptide across the membrane barrier. This peptide rescues the fluorescence of the cytosolic endogenous, non-fluorescent GFP1-10 protein. Here, we stably transfected Hela cells with a plasmid containing the full length mCherry and the non-fluorescent GFP1-10. Following incubation with CPP-GFP-11 constructs at multiple concentrations and temperatures for 30 minutes in serum free DMEM, cells were analyzed by flow cytometry for mCherry and GFP fluorescence (FIG. 17). Live cells expressing mCherry (˜50% of the total cells) were gated and their GFP fluorescence was analyzed. Unlike the luciferase splice correction assay where a single corrected mRNA transcript serves as template for many molecules of functional luciferase, the split GFP assay is stoichiometric; a single GFP-11 peptide can bind to a single GFP1-10 protein producing a finite fluorescent response.
Hela cells were transfected with p_mCherry-GFP1-10 (Addgene plasmid #78591) using LIPOFECTAMINE® 3000 (ThermoFisher). Single mCherry positive cells were sorted into 96-well plates using a BD™ FACSARIA™ cell sorter and colonies were maintained under G418 selection at […]. Stably transfected cells were plated in 12-well plates at 100,000 cells/well and grown overnight in complete DMEM. Cells were washed in PBS and incubated in 500 μl of CPP-GFP-11 solution at variable concentrations at 23° C. and 37° C. for 30 minutes. The CPP-GFP-11 solution was aspirated and 100 μl of 0.025% trypsin solution was added to each well. After detachment, cells were suspended in 500 μL of PBS+2% FBS and 20 mM HEPES. Cells were analyzed using a BD™ LSRII flow cytometer. Cells displaying a normal morphology were gated and first analyzed for mCherry fluorescence using the 543 nM laser. mCherry+ cells were used to generate a histogram of GFP fluorescence measured with the 488 nM laser.

[2] = system: Hela cells stably transfected with mCherry and GFP1-10; assay: Split GFP assay (GFP-11 delivery); type: cell-based; conditions: 40 μM peptide-GFP-11, 22° C.
[3] = system: HeLa, RAW264.7, HepG2, and MCF-7 cells; assay: TAMRA delivery assay (flow cytometry, confocal microscopy); type: cell-based; conditions: 0.5 μM CPP-TA + 4.5 μM CPP-C, 30 minutes at 4° C., 22° C., or 37° C.
Method: To determine the effect of the PNA cargo on delivery, we labeled CPPs, lacking the PNA705 cargo, with the fluorophore TAMRA on a C-terminal cysteine residue (CPP-TA) and measured delivery to multiple cell types. TAMRA-labelled CPPs, mixed with unlabeled CPPs at a 1:10 ratio in serum-free DMEM for a final concentration of 5 μM total peptide, was added to HeLa, RAW264.7, HepG2, and MCF-7 cells in 12-well cell culture plates and incubated for 30 minutes at 4° C., 22° C., or 37° C. prior to flow cytometric analysis (FIGS. 9-16). […] Delivery of TAMRA was verified by confocal microscopy for each cell type.
Hela, RAW264.7, HCT116, HepG2, and MCF-7 cells were plated in 12-well plates at 100,000 cells/well. After 24 hours, cells were gently washed in PBS, topped with 500 μl of CPP-TA solution containing 0.5 μM CPP-TA+4.5 uM CPP-C in sfDMEM without phenol red, and incubated for 30 min at either 4° C., 23° C., or 37° C. The incubation solution was aspirated and cells were treated with 100 μl 0.025% Trypsin for 3 minutes at 23° C. 500 μl DMEM containing 2% FBS, 125 nM Sytox Green, and 20 mM HEPES was used to suspend the cells. Cells were transferred to a filter-topped flow cytometry tube and analyzed on a BD™ LSR II flow cytometer. Cells displaying a normal morphology were gated and first analyzed for GFP fluorescence using the 488 nM laser. GFP negative cells were used to generate a histogram of TAMRA fluorescence, measured with the 543 nM laser.
Cells were treated as described above for the TAMRA delivery assay and immediately imaged to avoid artifacts resulting from fixation. The distribution of TAMRA and Sytox Green was analyzed using a confocal scanning Nikon Eclipse Ti2 inverted microscope using a 40× oil-immersion objective. Sytox Green was excited using the 488 nM laser and TAMRA was excited using the 543 nM laser.

[4] = system: P. aeruginosa; assay: Induced resistance, ten serial passages of broth sterilization assays; type: cell-based; conditions: ⅔ serially diluted antibiotics, overnight growth
Excerpt: Bacterial resistance against peptide antibiotics is known to occur, although it is reportedly more difficult to induce than resistance against conventional antibiotics. P. aeruginosa can gain resistance to some AMPs through selection for a variant with altered outer membrane composition. We used P. aeruginosa in a screen (FIG. 36) to select against rapid resistance. We tested if P. aeruginosa can stably gain resistance to the rationally designed peptides described herein and we compared their ability to adapt to conventional antibiotics under the same conditions. For ten serial passages, we performed broth sterilization assays using ⅔ serially diluted antibiotics with overnight growth. For each passage, we used the bacteria that grew at the highest antibiotic concentration to expand overnight for the subsequent generation. […] All of the conventional antibiotics promoted increasing resistance, and two promoted complete resistance by 10 passages.

[5] = system: P. aeruginosa; assay: Deep wound infection with luminescent P. aeruginosa, whole animal imaging; type: in vivo, mice
Method: Deep wounds in mice were infected with a luminescent strain of P. aeruginosa and monitored with whole animal imaging (FIGS. 35-37). In FIG. 36 infections are just beginning to become established. Areas of red indicate maximal bacterial colonization. No treatments have occurred. Treatment was twice per day, with 50 μg of D-NOGCON peptide in 20 μL of vehicle (0.025% acetic acid) starting 2 hours after infection. […] In the control animals (FIG. 36A), the infection is fully established across the entire wound bed and saturated the detector (red color). In the treated animals (FIG. 36B) the infection is much smaller in area and much lower in intensity, indicating it is under control.

[6] = system: S. aureus; assay: Radial diffusion in the presence of RBCs; type: cell-based; design: key: The ↑ represents the improvement in performance that would be desired for a viable in vivo antimicrobial peptide; ↓: The symbol represents a regression in desired behavior; *=p<0.05; **=p<0.01; ***=p<0.001; conditions: change versus parent sequence; paired t-test
Method: Underlay agarose was prepared by adding 5 g of low EEO agarose and 0.03 g of TSB to 500 mL of 10 mM phosphate buffer (pH=7.4). Overlay agarose was prepared by adding 5 g of low EEO agarose and 30 g of TSB to 500 mL of 10 mM phosphate buffer (pH=7.4). Both solutions were heated until the agarose melted and then were autoclaved. To a rectangular, one-well plate, 20 mL of underlay agarose, inoculated with 8×10^6 CFUs of bacteria, was added. A sterile, 96-well plate replicator from Sigma-Aldrich was set in the molten agarose and removed one the agarose solidified. Antibiotic was prepared at 4 times the final desired concentration. For the antibiotic standard, a serial dilution of 3:4 across a 96-well plate was performed followed by 1:4 dilution with PBS. Otherwise, the peptide was diluted to 20 μM with RBCs and/or serum to give between 2% (1×10^8 cells/mL) and 20% (1×10^9 cells/mL). Solutions were incubated with gentle shaking for 30 minutes at 37° C. […]. Overlay was added, and the plate was incubated upside down overnight. Surface growth was cleared, the plates were sterilized with 25% methanol and 5% acetic acid. Zones of inhibition were photographed and analyzed using ImageJ. (FIG. 21)
The engineered peptide sequences and their derivation from parent sequences is shown, along with the underlying hypothesis described for the first set of peptides (Table 4) and the second set (Table 5). We performed statistical testing for performance in antimicrobial assays in the presence and absence of RBCs, as well as for cytotoxicity. The broth dilution results were tested using a two sample t-test (N=6-22). The radial diffusion results were tested using a paired t-test (N=4). The cytotoxicity results were tested using a paired t-test (N=3). The ↑ represents the improvement in performance that would be desired for a viable in vivo antimicrobial peptide. This corresponds to a decrease in MIC values (increased potency) and decreased cytotoxicity. The symbol represents a regression in desired behavior. (*=p<0.05, **=p<0.01, ***=p<0.001).

[7] = system: P. aeruginosa biofilms; assay: Activity against P. aeruginosa biofilms; type: cell-based; conditions: 25 μM
Method: Bacterial biofilm formation on implanted medical devices is a serious medical problem because these biofilms can lead to life-threatening systemic infections. We tested selected peptides and rationally designed variants against biofilms formed by P. aeruginosa. […] D-NOGCON reduces viable bacteria by 3.6 logs ( 1/3000 reduction) at 25 μM, while the best conventional antibiotic, Ciprofloxacin, reduced viable bacteria by only 1.7 logs ( 1/55 reduction) at 25 μM.

[8] = Safety study of aspirated D-NOGCON; type: in vivo, C57BL/6 mice; conditions: aspiration
Method: (§1) The mice were then treated with D-NOGCON (SEQ ID NO:37), which were instilled in the trachea, exactly as described above for the administration of bacterial infection. Before attempting to treat a P. aeruginosa infection of the lung, we sought to establish a safe dose for administration of the D-NOGCON peptide via aspiration. Based on in vitro toxicity data (FIGS. 28D and 28E), a dosing regimen of 50 μL of D-NOGCON (100 μM) was administered every 8 hours for 3 days (9 doses). As a no treatment control, we administered 50 μL of PBS on the same schedule.
To monitor the toxicity we measured animal behavior and body weight changes (FIG. 29A). […] In the second safety trial, we administered 50 μL of D-NOGCON (50 μM) twice daily, for three days and monitored the animals behavior and body weight changes (FIG. 29B).

[9] = system: P. aeruginosa PA01; assay: Acute pneumonia induced by P. aeruginosa aspiration; type: in vivo, C57BL/6 mice
Method: Female C57BL/6 mice, aged five weeks, were obtained from Charles River Laboratories. Upon receipt, they were allowed at least one week to recover from transport and acclimate to the new housing environment. Mice were maintained on a standard chow diet. Experiments were performed with mice no younger than six weeks and no older than nine weeks. P. aeruginosa PA01 was cultured overnight in tryptic soy broth (TSB) at 37° C. and shaken at 220 RPM. Prior to infecting the mice, the overnight culture was diluted 100-fold into 25-mL of fresh TSB. The culture was grown for three hours before optical density was determined. Previous growth curve experiments allowed us to dilute this newly expanded culture to 1.4×10^8 CFU/mL. To infect an animal, mice were anesthetized using isoflurane and 50 μL of bacterial suspension (7×10^6 CFUs) was administered via intratracheal instillation. Briefly, the anesthetized mice were suspended from wire by their front feet and blunt forceps were used to extract the tongue. The tongue was pulled out and downward. The bacterial suspension was deposited in the back of the throat with a micropipette. The nares of the animal were then covered while the mouse recovered from anesthesia. The chest was gently rubbed to promote inhalation. The mice were made to inhale 15 times before the tongue was released and the mouse was removed from the wire. The animals were then allowed a minute to fully awaken and then returned to their cages.
as §1
Our initial experiment was survival-based. We infected 8 mice (4 for treatment, 4 for vehicle) with the above bacterial load in 50 μL of PBS and allowed 2 hours of recovery prior to the initial treatment administration. After the recovery period, dosing proceeded as it had for the second safety study (50 μL, 50 μM, 2× daily). […] At the 24-hour time point, mice from both groups lost ˜12% body weight (FIG. 30A). Between 24 and 48-hour timepoints, 3 controls and 1 treated animal were sacrificed (FIG. 30B). […] Euthanasia is required in these cases because the animals are clearly suffering and are not able to obtain the nutrients required for survival. […] The lungs of 3 animals from each treatment group were removed, homogenized, and plated on PIA plates to determine the P. aeruginosa CFU burden (FIG. 30C).
A third study reduced the CFU burden of P. aeruginosa to 7×10^6 and mice were treated as with the previous experiment. As in the previous experiment, both treated and untreated animals lost 10-12% of their body weight after 24 hours (FIG. 31A). […] What was not taken into consideration in this experiment was the propensity for infection to spread to other tissues.

GRKKRRQRRRPPQ [TAT, reference compound]
mCherry positive cells GFP-11 is delivered to [1]: 21% | mCherry positive cells GFP-11 is delivered to [2]: 7% | TAMRA delivery (words, rank order) [3]: CPP-2»CPP-3=CPP-1>CPP-4>TAT=penetratin

RRWARLRLVLAY [ARVA]
induction of resistance [4]: promoted total resistance in a few passages

RRWARRLAFAFRR [D-NOGCON]
wound infection (luminescence imaging) ([5]; after a single day of treatment, 50 μg in 20 μL twice per day starting 2 hours after infection): dramatically reduced compared to the control | integrated luminescence ([5]; first 5 days, treated on days 0, 1, and 2): significant protection, slowing of bacterial growth and more rapid clearance over control | summed activity and behavior scores ([5]; scale 0 (normal) to 3 each for five items, maximum 15): more normal behavior; also recorded: better summed behavioral scores | Radial Diffusion vs. S. aureus [6]: ↑Radial diffusion vs. | reduction of viable bacteria in biofilm [7]: 3.6 logs | tolerability (behavior and body weight changes) ([8]; 50 μL of 50 μM twice daily for three days): sufficiently safe | tolerability (behavior and body weight changes) ([8]; 50 μL of 100 μM every 8 hours for 3 days): too toxic for the animals to tolerate | body weight lost ([9]; survival study, 24-hour time point, same in vehicle group): ~12% | survival of the initial 24 hours ([9]; survival study, 50 μL, 50 μM, 2× daily, first dose 2 hours after infection): All mice from both treatment groups survived | animals sacrificed ([9]; survival study, between 24 and 48-hour timepoints, 4 mice per group, 3 controls sacrificed): 1 | body weight lost ([9]; survival study, day 3, all animals of both groups): more than 20% | infection titer ([9]; survival trial, 50 μL, 50 μM, 2× daily): little improvement in the infection titer | infection titer over control ([9]; third experiment, lower CFU burden): little improvement | body weight lost ([9]; third study, after 24 hours, same in untreated animals): 10-12% | CFU burden versus untreated ([9]; third study, two doses over 24 hours): non-significant increase
